Tested on: K562 CRISPRi cells
Experiment: Perturb-seq pooled growth measurement (sgRNA counts, growth phenotype γ, relative activity)
Format: cell-based, human
Details: sequencing read counts; for Perturb-seq pooled growth sgRNA counts, d5: 5 days of growth (day seven after transduction); for Perturb-seq pooled growth sgRNA counts, d10: 10 days of growth (day twelve after transduction); for Perturb-seq pooled growth sgRNA counts, T0: T0 = day two after transduction
From the text: Finally, we sought to use intermediate-activity sgRNAs to explore relationships between expression levels of various genes and the resulting cellular phenotypes. To simultaneously measure gene expression levels and obtain rich phenotypes for a variety of sgRNA series, we used Perturb-seq, an experimental strategy that enables matched capture of the transcriptome and the identity of an expressed sgRNA for each individual cell in pools of cells (27, 31-33) (FIG. 12A). […] In addition to the single-cell transcriptomes, we measured bulk growth phenotypes conferred by sgRNAs in these cells.
To measure the growth rate defects conferred by each sgRNA for comparison with the transcriptional phenotypes, samples of 500,000 transduced cells were taken from the same transduced cell population used in the Perturb-seq experiment on days two, seven, and twelve after transduction. Genomic DNA was extracted using the Nucleospin Blood kit (Macherey-Nagel) and sgRNA amplicons were prepared as described previously and above (19), albeit with no genomic DNA digestion or gel purification, and sequenced on HiSeq 4000 as described above for the other screens. Growth phenotypes were calculated by comparing normalized sgRNA abundances at day seven and twelve to those at day two, as described above. […] Relative sgRNA activities measured at day seven (five days of growth) were used to assign sgRNA activities in further analysis.

Row | Substance | Perturb-seq pooled growth sgRNA counts, d5 | Perturb-seq pooled growth sgRNA counts, d10 | Perturb-seq pooled growth sgRNA counts, T0
1 | RPS14_+_149829238.23-P1P2_13: sgRNA targeting RPS14, GAGGCCCGGGCGCGACAGTC, SEQ ID NO: 49 (listed as DNA, chemistry not fully specified) | 9567 | 12082 | 7137
2 | HSPE1_+_198365089.23-P1P2_02: sgRNA targeting HSPE1, GGAGACTGGCAGTCCGGCCC, SEQ ID NO: 67 (listed as DNA, chemistry not fully specified) | 5731 | 4437 | 7969
3 | HSPA5_+_128003624.23-P1P2_08: sgRNA targeting HSPA5, GAGCCGAGTGGGCGACGGTG, SEQ ID NO: 90 (listed as DNA, chemistry not fully specified) | 3005 | 3487 | 10148
4 | RPS14_+_149829238.23-P1P2_04: sgRNA targeting RPS14, GAGGCCCGCGCGCGACAATC, SEQ ID NO: 48 (listed as DNA, chemistry not fully specified) | 9641 | 12547 | 9244
5 | ALDOA_+_30077139.23-P1P2_13: sgRNA targeting ALDOA, GGTCACCAGGACCCCTTTTG, SEQ ID NO: 160 (listed as DNA, chemistry not fully specified) | 16944 | 26890 | 6699
6 | BCR_+_23523092.23-P1P2_07: sgRNA targeting BCR, GCGCGCGGGGCTCGTCTCAG, SEQ ID NO: 126 (listed as DNA, chemistry not fully specified) | 1744 | 2183 | 8081
7 | GATA1_−_48645022.23-P1P2_06: sgRNA targeting GATA1, GTGAGCTTGCGACATCCCCA, SEQ ID NO: 123 (listed as DNA, chemistry not fully specified) | 5580 | 5489 | 9440
8 | EIF2S1_−_67827080.23-P1P2_02: sgRNA targeting EIF2S1, GAGCGCAGCGCACGCTGAGG, SEQ ID NO: 138 (listed as DNA, chemistry not fully specified) | 2570 | 2582 | 8035
9 | GATA1_−_48645022.23-P1P2_04: sgRNA targeting GATA1, GTGAGCTTACCACATCCCCA, SEQ ID NO: 121 (listed as DNA, chemistry not fully specified) | 860 | 668 | 4714
10 | EIF2S1_−_67827080.23-P1P2_00: sgRNA targeting EIF2S1, GAGCGAAGCGCACGCTGAGG, SEQ ID NO: 136 (listed as DNA, chemistry not fully specified) | 1123 | 1318 | 5718
11 | POLR1D_+_28196016.23-P1_08: sgRNA targeting POLR1D, GGGAAGCAGGGACCGACCGA, SEQ ID NO: 74 (listed as DNA, chemistry not fully specified) | 4205 | 1986 | 16414
12 | RPS15_−_1438413.23-P1P2_12: sgRNA targeting RPS15, GACCAAAGCGATCTCTTGTG, SEQ ID NO: 63 (listed as DNA, chemistry not fully specified) | 12257 | 19991 | 4661
13 | TUBB_+_30688126.23-P1_06: sgRNA targeting TUBB, GCGGCAGGACGGTTCTGAGA, SEQ ID NO: 107 (listed as DNA, chemistry not fully specified) | 1983 | 1158 | 6235
14 | RAN_+_131356438.23-P1P2_12: sgRNA targeting RAN, GGCGGTCGCTGCGCTTAGGT, SEQ ID NO: 73 (listed as DNA, chemistry not fully specified) | 16172 | 25349 | 7627
15 | non-targeting_00406: non-targeting negative control sgRNA, GGCGCCGGACTGGACCTCGA, SEQ ID NO: 167 (listed as DNA, chemistry not fully specified) [reference compound] | 24099 | 39839 | 9974
16 | HSPA5_+_128003624.23-P1P2_00: sgRNA targeting HSPA5, GAGCCGAGTAGGCGACGGTG, SEQ ID NO: 88 (listed as DNA, chemistry not fully specified) | 1756 | 2176 | 5785
17 | ALDOA_+_30077139.23-P1P2_07: sgRNA targeting ALDOA, GGTCACCAGGCCCCCTTCTG, SEQ ID NO: 158 (listed as DNA, chemistry not fully specified) | 4284 | 3028 | 4830
18 | TUBB_+_30688126.23-P1_10: sgRNA targeting TUBB, GCGGCAGGAAGGTTCAGAGA, SEQ ID NO: 109 (listed as DNA, chemistry not fully specified) | 9877 | 12737 | 7085
19 | ATP5E_−_57607036.23-P1P2_01: sgRNA targeting ATP5E, GGTGTCCTGGGGCACTCTGT, SEQ ID NO: 152 (listed as DNA, chemistry not fully specified) | 10487 | 8806 | 7774
20 | COX11_+_53045977.23-P1P2_04: sgRNA targeting COX11, GGCTCTGGCGCCCTGGATGG, SEQ ID NO: 143 (listed as DNA, chemistry not fully specified) | 8343 | 5047 | 5234
21 | COX11_+_53045977.23-P1P2_10: sgRNA targeting COX11, GGCTCTGGCGTCCCGGATGG, SEQ ID NO: 145 (listed as DNA, chemistry not fully specified) | 8887 | 11271 | 5206
22 | RAN_+_131356438.23-P1P2_02: sgRNA targeting RAN, GGCGGCCGCTGCGCTTAGGG, SEQ ID NO: 70 (listed as DNA, chemistry not fully specified) | 15046 | 15358 | 11853
23 | POLR2H_+_184081251.23-P1P2_00: sgRNA targeting POLR2H, GGGGCCACGAGAGCAGCAGA, SEQ ID NO: 28 (listed as DNA, chemistry not fully specified) | 947 | 1103 | 9498
24 | SEC61A1_−_127771295.23-P1_02: sgRNA targeting SEC61A1, GGCGCTGACGTGTCTCTCGG, SEQ ID NO: 84 (listed as DNA, chemistry not fully specified) | 4030 | 4238 | 9991
25 | CDC23_−_137548987.23-P1P2_08: sgRNA targeting CDC23, GACAGCCATCGGGACCATGG, SEQ ID NO: 99 (listed as DNA, chemistry not fully specified) | 1531 | 1710 | 8986
26 | GATA1_−_48645022.23-P1P2_08: sgRNA targeting GATA1, GTGAGCTTTCCACATCCCCA, SEQ ID NO: 122 (listed as DNA, chemistry not fully specified) | 2043 | 1873 | 7028
27 | TUBB_+_30688126.23-P1_01: sgRNA targeting TUBB, GCAGCAGGAAGGTTCTGAGA, SEQ ID NO: 106 (listed as DNA, chemistry not fully specified) | 1319 | 962 | 7125
28 | DBR1_+_137893744.23-P1P2_00: sgRNA targeting DBR1, GTTTGCAGGAGTCTACACCC, SEQ ID NO: 78 (listed as DNA, chemistry not fully specified) | 9171 | 3583 | 13446

Reference: US20220259593A1, “CONTROL OF MAMMALIAN GENE DOSAGE USING CRISPR” (The Regents of the University of California, priority 2019, published 2022)
